{"source": "patent US20050037983A1", "about": "“Compositions and methods for the treatment of depression and other affective disorders” (priority 2003, published 2005)", "key": {"[1]": {"system": "subjects with DSM-IV major depression", "assay": "Human study: 36 subjects with DSM-IV major depression, three randomised groups, response rates", "format": "in vivo", "details": "Hamilton score greater than 20 at entry; Vioxx 30 mg/day; compared among three groups incl. placebo", "experimental": "Thirty six (36) subjects with DSM-IV major depression and Hamilton score greater than 20 were recruited. Subjects were randomly allocated into each of three groups • 1. SSRI plus Vioxx 30 mg/day • 2. Vioxx, 30 mg/day • 3. Placebo All subjects have base line Il-6, IL-1 and cortisol levels assayed using specific assays. Biochemical assays are repeated at the end of weeks 1, 3 and 6. […] Response to treatment was associated with a drop in cortisol levels and pro-inflammatory cytokines."}, "[2]": {"system": "subject with major depression", "assay": "Case reports: add-on anti-inflammatory in subjects with major depression, rated on 17 item Hamilton rating scale for depression (HAMD)", "format": "in vivo, human", "details": "person", "experimental": "A subject with a 4-5 month history of depression was used in this example. The subject's complaints included low mood, anhedonia, anxiety, poor concentration, significant initial insomnia, mild anorexia and weight loss of approximately 2 kilos. Symptoms were precipitated by problems both in the work and home environment. A diagnosis of major depression was made.\nOver three weeks this was increased to 300 mg daily.\nRofecoxib 50 mg daily was added to the venlafaxine.\nA subject with a long history of recurring depression was used in this example. The current episode was present for 3 months when initially seen. They were low in mood, tearful, irritable, very anxious and had significant sleep disturbance in the form of initial and delayed insomnia. There was no clear precipitant for their symptoms.\nThey had been taking venlafaxine for approximately 1 year at a maximum tolerated dose of 225 mg daily."}, "[3]": {"details": "in vivo; cited from earlier work"}, "[4]": {"system": "IL-6", "details": "in vitro; cited from earlier work"}, "[5]": {"system": "cyclooxygenase", "details": "cited from earlier work"}, "[6]": {"system": "subjects treated with IFN-α", "details": "cited from earlier work; for IL-6 level compared with placebo: as early as four hours after a single dose"}, "[7]": {"system": "neutrophils", "details": "cited from earlier work"}, "[8]": {"details": "subjects treated with interferon alpha"}}, "note": "Like-named read-outs stand apart in the source and are kept apart here.", "data": [{"compound": "CS(=O)(=O)c1ccc(C2=C(c3ccccc3)C(=O)OC2)cc1", "note": "[Rofecoxib]", "values": [{"measurement": "response rates", "setting": "[1]", "value": "greater than that observed for placebo"}, {"measurement": "HAMD score", "setting": "[2]; baseline HAMD 22, Rofecoxib 50 mg daily added to venlafaxine 300 mg daily, after 1 week", "value": 11}, {"measurement": "time to improvement after commencing treatment", "setting": "[2]; Rofecoxib 50 mg daily added to venlafaxine, subject's description", "value": "≤ 5", "unit": "days"}, {"measurement": "clinical state at review", "setting": "[2]; Rofecoxib added to venlafaxine, reviewed 2 weeks later", "value": "sustained"}]}, {"compound": "C[C@@H](C(=O)O)c1ccc(-c2ccccc2)c(F)c1", "note": "[R-flurbiprofen]", "values": [{"measurement": "gastrointestinal mucosal damage", "setting": "[3]", "value": "does not cause gastrointestinal mucosal damage"}, {"measurement": "potency of R-enantiomer versus S-enantiomer in down-regulating IL-6 levels", "setting": "[4]", "value": "significantly more potent"}, {"measurement": "inhibition of cyclooxygenase activity", "setting": "[5]", "value": "does not inhibit cyclooxygenase activity"}]}, {"compound": "Fc1ccc([C@@H]2CCNC[C@H]2COc2ccc3c(c2)OCO3)cc1", "note": "[paroxetine]", "values": [{"measurement": "impact in preventing depression", "setting": "[6]; [8]", "value": "modest impact"}]}, {"compound": "COc1ccc(C(CN(C)C)C2(O)CCCCC2)cc1", "note": "(stereo not drawn) [venlafaxine]", "values": [{"measurement": "clinical improvement", "setting": "[2]; venlafaxine 300 mg daily alone, after 4 weeks on this dose", "value": "No clinical improvement"}]}, {"compound": "CC(C)Cc1ccc([C@@H](C)C(=O)O)cc1", "note": "[ibuprofen, R-ibuprofen]", "values": [{"measurement": "potency of R-enantiomer versus S-enantiomer in down-regulating IL-6 levels", "setting": "[4]", "value": "significantly more potent"}]}, {"compound": "C[C@@H](C(=O)O)c1cccc(C(=O)c2ccccc2)c1", "note": "[ketoprofen, R-ketoprofen]", "values": [{"measurement": "potency of R-enantiomer versus S-enantiomer in down-regulating IL-6 levels", "setting": "[4]", "value": "significantly more potent"}]}, {"compound": "CN(C)CCCC1(c2ccc(F)cc2)OCc2cc(C#N)ccc21", "note": "(stereo not drawn) [citalopram]", "values": [{"measurement": "clinical response", "setting": "[2]; citalopram 20 mg daily alone, after 5 weeks", "value": "no response"}]}, {"compound": "IFN-α", "values": [{"measurement": "IL-6 level compared with placebo", "setting": "[6]", "value": "significantly increased"}, {"measurement": "IL-6 level compared with placebo", "setting": "[6]; listed as IFN-alpha", "value": "significantly increases"}, {"measurement": "subjects in whom major depression is reported", "setting": "[6]; [8]", "value": "up to 40%"}]}, {"compound": "CC(C)Cc1ccc(C(C)C(=O)O)cc1", "note": "(stereo not drawn) [Ibruprofen]", "values": [{"measurement": "HAMD", "setting": "[2]; baseline HAMD 20, 400 mg three times daily added to venlafaxine 225 mg daily, day 14", "value": 8}, {"measurement": "day of reported symptomatic improvement", "setting": "[2]; 400 mg three times daily added to venlafaxine", "value": "≤ 8", "unit": "days"}]}, {"compound": "O=C(O)c1cc(/N=N/c2ccc(S(=O)(=O)Nc3ccccn3)cc2)ccc1O", "note": "[sulfasalazine]", "values": [{"measurement": "induction of apoptosis in neutrophils", "setting": "[7]", "value": "capable of inducing apoptosis"}]}]}
